The text below walks through data of article PMC3298755 (Nature Chemical Biology, 2011).

The structures appear in SMILES notation. Read-outs that look alike come from different tables or passages of the source.

One experiment has as its target T1, mCOX-2 (Mus musculus, UniProt Q05769).
T1 sequence (Q05769 18-604): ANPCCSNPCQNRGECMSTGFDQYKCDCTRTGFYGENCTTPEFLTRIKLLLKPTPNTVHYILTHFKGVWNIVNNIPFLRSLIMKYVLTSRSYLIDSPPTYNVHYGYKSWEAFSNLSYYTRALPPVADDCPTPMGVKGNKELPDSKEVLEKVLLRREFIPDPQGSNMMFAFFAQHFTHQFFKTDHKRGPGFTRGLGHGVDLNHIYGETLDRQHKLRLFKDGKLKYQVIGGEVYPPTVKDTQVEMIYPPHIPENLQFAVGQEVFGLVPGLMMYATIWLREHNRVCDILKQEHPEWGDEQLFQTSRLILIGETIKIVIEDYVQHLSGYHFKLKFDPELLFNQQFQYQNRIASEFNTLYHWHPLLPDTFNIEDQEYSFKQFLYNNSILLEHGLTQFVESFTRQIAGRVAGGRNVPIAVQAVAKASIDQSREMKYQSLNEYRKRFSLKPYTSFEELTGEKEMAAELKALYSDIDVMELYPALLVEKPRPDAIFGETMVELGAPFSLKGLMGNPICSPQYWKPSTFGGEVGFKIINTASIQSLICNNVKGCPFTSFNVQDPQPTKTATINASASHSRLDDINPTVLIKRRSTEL
As to the kind of experiment: Inhibition of COX-2 oxygenation of AA, PG formation by LC-MS-MS. Format: biochemical.

Experiment [1] deals with COX-2 in stimulated DRGs. In kind it is cell-based, mouse.
For a further experiment, the system named is stimulated DRGs. As to the kind of experiment: Substrate levels. Format: cell-based, mouse.
Experiment [2] relates to COX-2 in stimulated DRGs. In kind it is cell-based, mouse. The following applies: read-out: IC50 for inhibition of 2-AG oxidation in DRGs.
In experiment [3] the test system is COX-2 in stimulated DRGs. In kind it is cell-based, mouse. The settings on record: read-out: IC50 for inhibition of AEA oxidation in DRGs.
A further experiment has as its system FAAH. The following applies: read-out: IC50, FAAH inhibition; in vitro; ref [29]; cited from earlier work.

As to `COc1ccc2cc([C@@H](C)C(=O)O)ccc2c1` [(R)-naproxen], the “Inhibition of AA oxidation by COX-2” value on mCOX-2 (at either 5 or 50 μM substrate concentrations) is given as “did not inhibit”. Also, the “Inhibition of the synthesis of PGs in DRGs” value with COX-2 in stimulated DRGs [1] (stimulated DRGs, at concentrations that inhibited PG-G and PG-EA synthesis) is reported as “did not inhibit”. In addition, in the experiment with stimulated DRGs, the “Amount of 2-AG in cell extracts” value is “increased”, the “Amount of AA in cell extracts” value was “did not increase” and the “Amount of AEA in cell extracts” value is “increased”.
With `C[C@@H](C(=O)O)c1ccc(-c2ccccc2)c(F)c1` [(R)-flurbiprofen], the IC50 in the experiment with COX-2 in stimulated DRGs [2] was determined as 5.8 ± 2.9 µM. In addition, the IC50 in the experiment on COX-2 in stimulated DRGs [3] amounted to 6 ± 2.7 µM. In addition, in the experiment with COX-2 in stimulated DRGs [1], the “Inhibition of the synthesis of PGs in DRGs” value is “did not inhibit”. Moreover, in the experiment on stimulated DRGs, the “Amount of 2-AG in cell extracts” value is “increased”, the “Amount of AA in cell extracts” value is recorded as “did not increase” and the “Amount of AEA in cell extracts” value is on record as “increased”. Besides, the IC50 in the experiment on FAAH was more than 1000 µM.
For `CC(C)Cc1ccc([C@@H](C)C(=O)O)cc1` [(R)-ibuprofen], in the experiment on stimulated DRGs, the “Amount of 2-AG in cell extracts” value is “increased”, the “Amount of AA in cell extracts” value was “did not increase” and the “Amount of AEA in cell extracts” value is “increased”.
On to `Cc1ccc(Nc2c(F)cccc2Cl)c(CC(=O)O)c1` [Lumiracoxib], for which the “IC50, inhibition of COX-2 oxygenation of AA (result in words)” value against mCOX-2 (50 μM AA, 15 min pre-incubation, 30 s reaction, LC-MS-MS) was “no inhib”.
